Laboratory results taken from publication PMC6133092, “Synthesis of 2-alkylthio-N-(quinazolin-2-yl)benzenesulfonamide derivatives: anticancer activity, QSAR studies, and metabolic stability” (Monatshefte Fur Chemie, 2018).

Experiments:
[1] = test system: HCT-116; test: NCI-60 single dose screen, HCT-116; assay type: cell-based; conditions: Homo sapiens, Colon cancer, single concentration 10^−5 M, read-out: IGP (inhibition growth percent) HCT-116
Protocol: (§1) Aside from above, compounds 9–14 and 17–24 were also submitted to National Cancer Institute and evaluated for the cytotoxic effects toward 60 cell lines at a single dose of 10 μM (Table 2). […] As it was summarized in Table 2, leukemia RPMI-8226 and NSCLC A549/ATCC were most sensitive to compounds 18, 22, and 24. These derivatives in 10 μM concentration inhibited the growth of approximately 50% cells belonging to the above mention cell lines.
(§2) Cytotoxicity evaluation of compounds 9–14 and 17–24 was performed at the National Cancer Institute according to NCI-60 DTP human tumor cell line screen procedure.

[2] = Metabolic stability in human liver microsomes with NADPH; assay type: in vitro ADME; conditions: pooled human liver microsomes, pH 7.4, human liver microsomes 0.5 mg/cm^3, NADPH 1 mM, 10 μM compound, 37 °C, read-out: in vitro metabolic half-life t1/2
Protocol: Selected derivatives were submitted to metabolic stability study to assess their ability to remain unchanged in the presence of human metabolic enzymes. Human liver microsomes were used as they are a rich source of all common CYP isoenzymes. In vitro incubations were performed in the presence of NADPH as a cofactor and the disappearance of a derivative was followed using LC–MS technique. The in vitro metabolic half-life values are gathered in Fig. 3.
Stock solutions of studied compounds were prepared at concentration of 10 mM in DMSO. […] Incubation mixture contained 10 μM of a studied derivative, 1 mM of NADPH (Sigma-Aldrich) and 0.5 mg/cm^3 of pooled human liver microsomes (HLM, Sigma-Aldrich) in potassium phosphate buffer (0.1 M, pH 7.4). Incubation was carried out in thermostat at 37 °C and started by addition of studied compound. 50 mm^3 samples were taken at starting point and after 5, 15, 30, 45, and 60 min. Enzymatic reaction was terminated by the addition of the equal volume of ice-cold acetonitrile. Incubations were performed in triplicates, the average t1/2 and standard deviation was calculated. Control incubations were performed without NADPH to assess chemical instability. After collection, samples were immediately centrifuged (10 min, 10,000 rpm) and resulted supernatant was directly analyzed or kept in − 80 °C until LC–MS analysis. Natural logarithm of a compound over IS peak area ratio was plotted versus incubation time. Metabolic half-time (t1/2) was calculated from the slope of the linear regression.
LC–MS analysis was performed on an Agilent 1260 system coupled to SingleQuad 6120 mass spectrometer (Agilent Technologies, Santa Clara, CA, USA). Poroshell EC-C18 (2.1 mm × 150 mm, 2.7 μm, Agilent Technologies, Santa Clara, CA, USA) was used in reversed-phase mode with gradient elution starting with 5% of phase A (10 mM ammonium formate in water) and 95% of phase B (10 mM ammonium formate in acetonitrile–water mixture, 95:5 v/v). […] Total analysis time was 15 min at 40 °C, flow rate was 1 cm^3/min and the injection volume was 5 mm^3. The mass spectrometer was equipped with electrospray ion source and operated in positive ionization. Mass analyzer was set individually to each compound to detect [M+H]^+ protonated molecule. MSD parameters of the ESI source were as follows: nebulizer pressure 35 psig (N2), drying gas […] (N2), drying gas temperature 300 °C, capillary voltage 3 kV, fragmentor voltage 150 V.

[3] = test system: HOP-92; test: NCI-60 single dose screen, HOP-92; assay type: cell-based; conditions: Homo sapiens, NSCLC, single concentration 10^−5 M, read-out: IGP (inhibition growth percent) HOP-92
Protocol: as §1, §2

[4] = test system: PC-3; test: NCI-60 single dose screen, PC-3; assay type: cell-based; conditions: Homo sapiens, Prostate cancer, single concentration 10^−5 M, read-out: IGP (inhibition growth percent) PC-3
Protocol: as §1, §2

[5] = test system: MOLT-4; test: NCI-60 single dose screen, MOLT-4; assay type: cell-based; conditions: Homo sapiens, Leukemia, single concentration 10^−5 M, read-out: IGP (inhibition growth percent) MOLT-4
Protocol: as §1, §2

[6] = test system: HCT-116, HeLa, MCF-7; test: MTT assays, mean over three tested cell lines; assay type: cell-based; conditions: Homo sapiens, mean of HCT-116, HeLa, read-out: mean IC50 against three tested cell lines
Protocol: (§3) All of the newly synthesized compounds 9–24 were evaluated for their effects on cell viability in three human cancer cell lines: HCT-116 (colon cancer), HeLa (cervical cancer), and MCF-7 (breast cancer). Cisplatin was used as reference drug. […] Considering the activity of derivatives 9–12, 15, 17, 18, and 21–24, it can be noticed that phenyl group as R^3 bring an increase of cytotoxicity in comparison with methyl in place of R^3. However, this impact seems to be the most important for compounds with the bulky group in R^1 and generally, it is less for a set of derivatives with methyl group substituted in R^1 (9–12).
(§4) Cell viability was determined using the MTT (3-(4,5-dimethylthiazol-2-yl)-2,5-diphenyltetrazolium bromide) assay. Cells were seeded in 96-well plates at a density of 5 × 10^3 cells/well and treated for 72 h with the examined compounds in the concentration range 1–100 μM (1, 10, 25, 50, and 100 μM). Following treatment, MTT (0.5 mg/cm^3) was added to the medium and cells were further incubated for 2 h at 37 °C. Cells were lysed with DMSO and the absorbance of the formazan solution was measured at 550 nm with a plate reader (Victor, 1420 multilabel counter). […] The experiment was performed in triplicate. Values are expressed as the mean ± SD of at least three independent experiments.

[7] = test system: A549/ATCC; test: NCI-60 single dose screen, A549/ATCC; assay type: cell-based; conditions: Homo sapiens, A549, NSCLC; single concentration 10^−5 M; read-out: IGP (inhibition growth percent) A549/ATCC
Protocol: as §1, §2

[8] = test system: MCF-7; test: NCI-60 single dose screen, MCF-7; assay type: cell-based; conditions: Homo sapiens, MCF7; Breast cancer; single concentration 10^−5 M; read-out: IGP (inhibition growth percent) MCF-7
Protocol: as §1, §2

[9] = test system: RPMI-8226; test: NCI-60 single dose screen, RPMI-8226; assay type: cell-based; conditions: Homo sapiens, RPMI-8226, Leukemia; single concentration 10^−5 M; read-out: IGP (inhibition growth percent) RPMI-8226
Protocol: as §1, §2

[10] = test system: MCF-7 (breast cancer); test: MTT cell viability assay, MCF-7; assay type: cell-based, human; conditions: Homo sapiens, MCF7, 72 h, mean ± SD
Protocol: as §3
All chemicals, if not stated otherwise, were obtained from Sigma-Aldrich (St. Louis, MO, USA). The MCF-7 and HeLa cell lines were purchased from Cell Lines Services (Eppelheim, Germany), the HCT-116 cell line was purchased from ATCC (ATCC-No: CCL-247). Cells were cultured in Dulbecco’s modified Eagle’s medium (DMEM) supplemented with 10% fetal bovine serum, 2 mM glutamine, 100 units/cm^3 penicillin, and 100 μg/cm^3 streptomycin. Cultures were maintained in a humidified atmosphere with 5% CO2 at 37 °C in an incubator (Heraceus, HeraCell).
as §4

half-life at 10 μM [2] | IC50 [6] | IC50 [10] | Compound | inhibition at 10 µM [1] | inhibition at 10 µM [3] | inhibition at 10 µM [4] | inhibition at 10 µM [5] | inhibition at 10 µM [7] | inhibition at 10 µM [8] | inhibition at 10 µM [9]
11.2 min | 44.7 µM | 46 ± 1 µM | O=C(Nc1ccccc1)c1cc(S(=O)(=O)Nc2nc(-c3ccccc3)c3ccccc3n2)c(SCc2ccccc2)cc1Cl [Compound 18, 2-Benzylthio-4-chloro-5-phenylcarbamoyl-N-(4-phenylquinazolin-2-yl)benzenesulfonamide] | 31% | 26% | 24% | 36% | ~50% | 14% | ~50%
42.3 min | 45.7 µM | 52 ± 3 µM | Cc1ccc(NC(=O)c2cc(S(=O)(=O)Nc3nc(-c4ccccc4)c4ccccc4n3)c(SCc3ccccc3)cc2Cl)cc1 [Compound 24, 2-Benzylthio-4-chloro-5-(4-methylphenylcarbamoyl)-N-(4-phenylquinazolin-2-yl)benzenesulfonamide] | 44% | 26% | 49% | 21% | ~50% | 23% | ~50%
67.2 min | 44.7 µM | 53 ± 1 µM | O=C(Nc1ccc(Cl)cc1)c1cc(S(=O)(=O)Nc2nc(-c3ccccc3)c3ccccc3n2)c(SCc2ccccc2)cc1Cl [Compound 22, 2-Benzylthio-4-chloro-5-(4-chlorophenylcarbamoyl)-N-(4-phenylquinazolin-2-yl)benzenesulfonamide] | 39% | 34% | 44% | 52% | ~50% | 20% | ~50%
